Test results: patent publication US10765684B2, “Reduction of side effects from aromatase inhibitors used for treating breast cancer” (HAVAH THERAPEUTICS PTY LTD, priority 2005, dated 2020)

Tests used:
[1] = cited from earlier work
[2] = system: post-menopausal patients; design: species or system post-menopausal women; conditions: in vivo
Source text: An endocrine subscale (FACT-ES) to accompany a well-validated QOL measure called the FACT-B (Brady, M J., et al., Journal of Clinical. Oncology., Vol. 15, No. 3 (March 1997) pp. 974-986, which is incorporated in its entirety) was developed specifically for use in trials using drugs likely to cause endocrine related symptoms. See Fallowfield, L J, et al., Breast Cancer Research and Treatment, Vol. 55, No. 2, 1999, pp. 189-199, which is incorporated herein by reference in its entirety. Also, FACT-ES is a validated questionnaire designed to measure quality of life of women with breast cancer who are being treated with endocrine therapies. It consists of the FACT-B questionnaire plus an additional endocrine subscale. FACT-B (breast) consists of the FACT-G (general) QOL tool for cancer patients plus the Breast Cancer subscale. FACT-ES has been developed to measure QOL in patients receiving endocrine therapy for breast cancer. This instrument (FACT-ES) should, therefore, be sensitive to QOL changes in patients in this trial. […]
At the three assessment times during the study, the quality of life for each patient was assessed using standard Functional Assessment of Cancer Therapy-Endocrine Symptoms (FACT-ES) questionnaire (See FIG. 8), which questionnaire is a standard method for determining the occurrence and prominence of treatment-related symptoms and side-effects in breast cancer patients. […]

[3] = system: post-menopausal patients; conditions: in vivo
Source text: The Western Ontario and McMaster Universities (WOMAC) Osteoarthritis Index™ consists of three VAS, one each pertaining to pain, joint stiffness and physical function. This then gives the WOMAC™ osteoarthritis index composite score.
Five post-menopausal women having similar patient socio-demographic characteristics and ranging in age from 49 years to 56 years (median age 54) were selected for study. […]
(§1) Each woman selected was subjected to four weeks of aromatase inhibitor therapy (anastrozole 1 mg (ARIMIDEX®) orally as a tablet once a day), and thereafter to an additional eight weeks of the same aromatase inhibitor therapy in combination with the oral administration of 40 mg of testosterone undecanoate as a tablet once a day. During this study, side effects associated with aromatase inhibitor treatment were measured at three separate times: prior to the first week of aromatase inhibitor therapy, following the fourth week of aromatase inhibitor therapy but before administration of testosterone undecanoate was begun, and following the eighth week of combined aromatase inhibitor and androgen replacement therapy.
The y axis is a visual analogue pain scale. Specifically, the y axis indicates a percentage score of a subjective quantification of pain measured out of 100.

[4] = serum hormone levels in post-menopausal breast cancer patients; assay type: in vivo, post-menopausal women; conditions: versus pre-therapy, FIG. 2
Source text: Five post-menopausal women having similar patient socio-demographic characteristics and ranging in age from 49 years to 56 years (median age 54) were selected for study. Each woman had been diagnosed with node-negative estrogen receptor and PR (Progesterone Receptor) positive BCa (Breast cancer), with tumor sizes ranging from 1.9 cm to 2.3 cm (median tumor size of 2.1 cm) and selected post-surgery (e.g., mastectomy, lumpectomy, or quadrantectomy for primary breast cancer) and post-chemotherapy. None had been subjected to previous attempts at hormone replacement therapy.
as §1
The y axis is picomoles/L of serum.

[5] = system: post-menopausal patients; conditions: in vivo; remark: listed apart in the source
Source text: Another embodiment of this invention involves measuring cognitive function, including processing speed, working memory, visual memory, and verbal memory.
Five post-menopausal women having similar patient socio-demographic characteristics and ranging in age from 49 years to 56 years (median age 54) were selected for study. Each woman had been diagnosed with node-negative estrogen receptor and PR (Progesterone Receptor) positive BCa (Breast cancer), with tumor sizes ranging from 1.9 cm to 2.3 cm (median tumor size of 2.1 cm) and selected post-surgery (e.g., mastectomy, lumpectomy, or quadrantectomy for primary breast cancer) and post-chemotherapy. […]
Each woman selected was subjected to four weeks of aromatase inhibitor therapy (anastrozole 1 mg (ARIMIDEX®) orally as a tablet once a day), and thereafter to an additional eight weeks of the same aromatase inhibitor therapy in combination with the oral administration of 40 mg of testosterone undecanoate as a tablet once a day. During this study, side effects associated with aromatase inhibitor treatment were measured at three separate times: prior to the first week of aromatase inhibitor therapy, following the fourth week of aromatase inhibitor therapy but before administration of testosterone undecanoate was begun, and following the eighth week of combined aromatase inhibitor and androgen replacement therapy. […]

[6] = cited from earlier work; remark: listed apart in the source

SMILES: C[C@]12CC[C@H]3[C@@H](CCC4=CC(=O)CC[C@@]43C)[C@@H]1CC[C@@H]2O [testosterone]
- testosterone broken down in the liver as it is absorbed from the gut ([1]; oral delivery): 80-90%
- testosterone broken down in the intestines by aromatase and other metabolic pathways ([1]; oral): approximately 85%

SMILES: CCCCCCCCCCC(=O)O[C@H]1CC[C@H]2[C@@H]3CCC4=CC(=O)CC[C@]4(C)[C@H]3CC[C@]12C [testosterone undecanoate]
- oral bioavailability ([1]; by-passes the liver via the lymphatic system): orally bioavailable

SMILES: CC(C)(C#N)c1cc(Cn2cncn2)cc(C(C)(C)C#N)c1 [Al only, anastrozole]
- quality of life as measured by FACT-ES questionnaires [2]: decreased
- reported arthralgia symptoms [3]: elevated levels of arthralgia
- average estradiol (E2) serum level ([4]; following the fourth week of aromatase inhibitor therapy (anastrozole 1 mg once a day)): drops significantly
- remainder of the serum hormone levels (T, FreeT, DHT) ([4]; following the fourth week of aromatase inhibitor therapy): relatively unchanged
- cognitive function scores (processing speed, working memory, visual memory, verbal memory; mean Z score) [5]: decreased across all four ability types

SMILES: CCC1(c2ccc(N)cc2)CCC(=O)NC1=O (stereo not shown) [aminoglutethimide]
- tolerability ([6]; Cash, Brough et al 1967): poorly tolerated
- adrenal suppression ([6]; limited the use of the drug): marked adrenal suppression
